Legend:
[1] = tested on: Puccinia recondita (Puccrt K4); assay: Curative control of brown rust on wheat (Use Example 5, greenhouse comparative test); assay type: in vivo; conditions: wheat seedlings, sprayed after inoculation, untreated control 90
Method: The spray solutions were prepared in several steps: The stock solutions were prepared: a mixture of acetone and/or dimethylsulfoxide and the wetting agent/emulsifier Wettol, which is based on ethoxylated alkylphenoles, in a relation (volume) solvent-emulsifier of 99 to 1 was added to 25 mg of the compound to give a total of 5 ml. Water was then added to total volume of 100 ml. This stock solution was diluted with the described solvent-emulsifier-water mixture to the given concentration. The first two developed leaves of pot-grown wheat seedling were dusted with spores of Puccinia recondita. To ensure the success the artificial inoculation, the plants were transferred to a humid chamber without light and a relative humidity of 95 to 99% and 20 to 24° C. for 24 h. The next day the plants were cultivated for 3 days in a greenhouse chamber at 20-24° C. and a relative humidity between 65 and 70%. Then the plants were sprayed to run-off with an aqueous suspension, containing the concentration of active ingredient or their mixture as described below. The plants were allowed to air-dry. Then the trial plants were cultivated for 8 days in a greenhouse chamber at 20-24° C. and a relative humidity between 65 and 70%. The extent of fungal attack on the leaves was visually assessed as % diseased leaf area.

[2] = tested on: Phakopsora pachyrhizi; assay: Protective control of soy bean rust on soy beans (Use Example 4, greenhouse comparative test); assay type: in vivo; conditions: soy bean seedlings, inoculated 1 day after spraying, untreated control 80
Method: The spray solutions were prepared in several steps:
The stock solutions were prepared: a mixture of acetone and/or dimethylsulfoxide and the wetting agent/emulsifier Wettol, which is based on ethoxylated alkylphenoles, in a relation (volume) solvent-emulsifier of 99 to 1 was added to 25 mg of the compound to give a total of 5 ml. Water was then added to total volume of 100 ml.
This stock solution was diluted with the described solvent-emulsifier-water mixture to the given concentration.
Leaves of pot-grown soy bean seedlings were sprayed to run-off with an aqueous suspension, containing the concentration of active ingredient or their mixture as described below. The plants were allowed to air-dry. The trial plants were cultivated for 1 day in a greenhouse chamber at 23-27° C. and a relative humidity between 60 and 80%. Then the plants were inoculated with spores of Phakopsora pachyrhizi. To ensure the success the artificial inoculation, the plants were transferred to a humid chamber with a relative humidity of about 95% and 20 to 24° C. for 24 h. The trial plants were cultivated for fourteen days in a greenhouse chamber at 23-27° C. and a relative humidity between 60 and 80%. The extent of fungal attack on the leaves was visually assessed as % diseased leaf area.

OC(Cc1ccccc1)(Cn1cncn1)c1ccc(Oc2ccc(Cl)cc2)cc1Cl (stereo not drawn) [Compound I-2, 2-[2-chloro-4-(4-chloro-phenoxy)-phenyl]-1-phenyl-3-[1,2,4]triazol-1-yl-propan-2-ol]
Disease (%) at 63 ppm [1]: 35% | Disease (%) at 150 ppm [2]: 3%

OC(/C=C/c1ccccc1)(Cn1cncn1)c1ccc(Oc2ccc(Cl)cc2)cc1Cl (stereo not drawn) [Compound V20, reference compound]
Disease (%) at 63 ppm [1]: 55% | Disease (%) at 150 ppm [2]: 50%

OC(Cn1cncn1)(c1ccccc1)c1ccc(Oc2ccc(Cl)cc2)cc1Cl (stereo not drawn) [Compound I-1]
Disease (%) at 150 ppm [2]: 1%

OC(C#Cc1ccccc1)(Cn1cncn1)c1ccc(Oc2ccc(Cl)cc2)cc1Cl (stereo not drawn) [Compound I-4]
Disease (%) at 63 ppm [1]: 20%

From US20140141974A1, “Fungicidal phenylalkyl-substituted 2-[2-chloro-4-(4-chloro-phenoxy)-phenyl]-1-[1,2,4]triazol-1-yl-ethanol compounds” (BASF SE, priority 2011, published 2014)
